Data on 2 compounds can be found in ChEMBL document CHEMBL4364304, “Discovery, synthesis, and in vitro evaluation of a novel bioactive peptide for ACE and DPP-IV inhibitory activity” (Eur J Med Chem, 2019).

The target of one assay is Dipeptidyl peptidase 4 (Homo sapiens, UniProt P27487). Kind of assay: Inhibition of recombinant human DPP4 using H-Gly-Pro conjugated amino methyl coumarin as substrate by fluorometric assay.
Assay [1] has as its target T1, Angiotensin-converting enzyme (Sus scrofa, UniProt F1RRW5).
T1 sequence (F1RRW5 whole entry): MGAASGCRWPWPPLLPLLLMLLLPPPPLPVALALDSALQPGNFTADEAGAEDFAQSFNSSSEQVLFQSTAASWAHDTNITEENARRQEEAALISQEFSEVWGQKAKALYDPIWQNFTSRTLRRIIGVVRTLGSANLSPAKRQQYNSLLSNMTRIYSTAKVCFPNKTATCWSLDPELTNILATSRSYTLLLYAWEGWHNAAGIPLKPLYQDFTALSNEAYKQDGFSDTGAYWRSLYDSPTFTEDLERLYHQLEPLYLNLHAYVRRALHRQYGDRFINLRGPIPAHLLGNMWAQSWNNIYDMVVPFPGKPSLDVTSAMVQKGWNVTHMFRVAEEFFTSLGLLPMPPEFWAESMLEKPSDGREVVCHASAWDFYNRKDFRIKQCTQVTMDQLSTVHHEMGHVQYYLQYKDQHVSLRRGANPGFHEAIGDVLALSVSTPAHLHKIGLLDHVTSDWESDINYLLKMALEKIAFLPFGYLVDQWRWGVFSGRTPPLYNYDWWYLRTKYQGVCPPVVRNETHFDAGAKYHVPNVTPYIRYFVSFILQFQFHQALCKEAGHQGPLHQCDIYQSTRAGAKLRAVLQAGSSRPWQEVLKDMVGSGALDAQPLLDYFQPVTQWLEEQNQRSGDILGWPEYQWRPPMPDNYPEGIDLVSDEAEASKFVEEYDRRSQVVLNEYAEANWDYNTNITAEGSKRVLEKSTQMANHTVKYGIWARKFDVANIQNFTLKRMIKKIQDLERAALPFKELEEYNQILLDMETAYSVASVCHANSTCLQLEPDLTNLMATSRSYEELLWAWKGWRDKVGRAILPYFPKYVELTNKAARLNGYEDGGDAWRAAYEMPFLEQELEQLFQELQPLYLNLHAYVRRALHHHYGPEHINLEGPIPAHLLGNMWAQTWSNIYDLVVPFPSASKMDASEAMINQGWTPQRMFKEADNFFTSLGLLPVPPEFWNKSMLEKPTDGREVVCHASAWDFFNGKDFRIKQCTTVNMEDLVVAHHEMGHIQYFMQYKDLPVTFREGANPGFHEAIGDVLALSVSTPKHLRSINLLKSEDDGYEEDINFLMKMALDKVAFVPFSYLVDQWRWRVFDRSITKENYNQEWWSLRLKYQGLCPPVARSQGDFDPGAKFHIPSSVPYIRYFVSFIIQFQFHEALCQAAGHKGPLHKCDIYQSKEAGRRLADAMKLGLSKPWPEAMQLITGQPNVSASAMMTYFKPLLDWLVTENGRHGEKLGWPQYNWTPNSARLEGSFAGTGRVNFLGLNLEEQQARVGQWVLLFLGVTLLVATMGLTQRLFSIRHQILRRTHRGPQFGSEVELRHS
In words: (§1) Inhibition of porcine angiotensin converting enzyme assessed as release of hippuric acid using hippuryl-histidyl-leucine as substrate measured after 30 mins by spectrophotometry analysis.

In assay [2] the target is T2, Angiotensin-converting enzyme (Sus scrofa) (UniProt F1RRW5).
T2 sequence (whole entry): T1 sequence (F1RRW5 whole entry)
The description is as §1.

Residues, ends and D or L forms follow the SMILES beside them.

Sequence of Dipeptidyl peptidase 4 (P27487 whole entry): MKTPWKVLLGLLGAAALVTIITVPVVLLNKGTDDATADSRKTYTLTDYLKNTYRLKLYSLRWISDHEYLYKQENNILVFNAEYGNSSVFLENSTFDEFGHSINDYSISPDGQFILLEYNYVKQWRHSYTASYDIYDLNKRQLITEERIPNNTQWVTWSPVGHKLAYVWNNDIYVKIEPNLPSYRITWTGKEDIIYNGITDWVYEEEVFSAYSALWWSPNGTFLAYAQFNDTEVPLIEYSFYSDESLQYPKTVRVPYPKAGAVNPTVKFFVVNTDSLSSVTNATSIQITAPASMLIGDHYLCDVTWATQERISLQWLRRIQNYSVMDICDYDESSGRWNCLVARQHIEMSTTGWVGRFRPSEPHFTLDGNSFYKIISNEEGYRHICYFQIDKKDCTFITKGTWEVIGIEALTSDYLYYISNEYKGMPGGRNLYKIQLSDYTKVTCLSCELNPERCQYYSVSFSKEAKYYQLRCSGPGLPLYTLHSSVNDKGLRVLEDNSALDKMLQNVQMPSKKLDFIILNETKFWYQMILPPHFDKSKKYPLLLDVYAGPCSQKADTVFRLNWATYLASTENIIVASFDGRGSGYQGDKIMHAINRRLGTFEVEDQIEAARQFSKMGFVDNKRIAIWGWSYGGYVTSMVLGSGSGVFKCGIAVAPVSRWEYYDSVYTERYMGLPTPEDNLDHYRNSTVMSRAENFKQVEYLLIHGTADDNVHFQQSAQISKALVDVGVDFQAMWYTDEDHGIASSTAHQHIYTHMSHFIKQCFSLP

By IC50 is commonly meant the midpoint of a concentration-inhibition curve. In the case of `CC[C@H](C)[C@H](NC(=O)[C@H](CC(C)C)NC(=O)[C@@H]1CCCN1C(=O)[C@H](CC(C)C)NC(=O)[C@@H]1CCCN1C(=O)[C@@H](NC(=O)CN)[C@@H](C)CC)C(=O)O` (H-GIPLPLI-OH), the IC50 on Dipeptidyl peptidase 4 was found to be 3830 µM; in assay [1] it was 74.3 µM. Besides, the inhibition entry in assay [2] is “Dose-dependent effect”.

With `CC[C@H](C)[C@H](N)C(=O)N[C@@H](CCC(N)=O)C(=O)N[C@@H](CCCCN)C(=O)N[C@H](C(=O)N[C@@H](C)C(=O)NCC(=O)N[C@H](C(=O)N[C@@H](Cc1c[nH]c2ccccc12)C(=O)O)[C@@H](C)O)C(C)C` (H-IQKVAGTW-OH), in assay [1], the half-inhibitory concentration (IC50) was found to be 300 µM.
